In article PMC4605843, “Cell-Penetrating Peptides Selectively Cross the Blood-Brain Barrier In Vivo” (PLoS ONE, 2015):
Where “and” joins values, the source holds several entries; their conditions need not be identical. Equal entries are not always repeated.

How the values were obtained:
[1] = system: blood-brain barrier (BBB); experiment: Multiple time regression (MTR) analysis, blood-to-brain influx; format: in vivo, ICR-CD-1 mice; settings: whole brain, ± 65% confidence limits
Procedure: Shortly, 200 μl of the radioiodinated CPP solution (30000 cpm/μl) was injected into the right jugular externalis vein of anesthetized ICR-CD-1 mice, which were then decapitated at 1, 3, 5, 10, 12.5 and 15 min post injection, with first and last time points performed in duplicate, after which brains were collected and measured for radioactivity using a gamma counter (Wallac Wizard 1470, Perkin Elmer). Shortly before decapitation, blood was collected from the left carotid artery, which was centrifuged (10000 g, 15 min at 21°C) in order to measure the radioactivity of blood and serum. Dermorphin and radioiodinated BSA were used as positive and negative control, respectively. The blood-to-brain entry during the experimental period of 15 min was evaluated by plotting the ratio of brain (Am(T)) and serum activity (Cp(T)), corrected for the brain weight and serum volume, respectively, versus the exposure time (Θ), expressing the theoretical steady state serum level of the iodinated peptide at a given serum concentration [37, 73]. The exposure time is calculated as the integral of the arterial serum radioactivity over time divided by the radioactivity at time t. The integral is calculated through the trapezoidal rule of the log-transformed data [73]. In the linear part of the curve, assuming a two-compartmental BBB model, data can be fitted using a linear model from which the unidirectional influx rate (Kin), also referred to as unidirectional blood to brain clearance K1 [46], and the initial brain distribution volume (Vi) can be determined using the following equation according to Gjedde and Patlak [37–40]: Am(T)/Cp(T)=Abrain(T)/Aserum(T)=Kin⋅Θ+Vi with Θ = ∫0TCp(t) ⋅ dt/Cp(T) (1)

[2] = system: brain parenchyma and capillaries; experiment: Capillary depletion method: brain parenchyma/capillary distribution; format: in vivo, ICR-CD-1 mice; settings: capillary depletion, 10 min after IV injection of radiolabeled peptide (200 μl, 10000 cpm/μl), brain perfused with lactated Ringer's buffer, two ICR-CD-1 mice, gamma counter
Procedure: The capillary depletion method was used to evaluate the distribution of the peptide between the brain parenchyma and capillaries. In summary (see Materials and Methods in [45]), 200 μl of a radiolabeled peptide solution (10000 cpm/μl) was injected in the jugular externalis vein of two anesthetized ICR-CD-1 mice. Ten minutes after IV injection, mice were decapitated and brains were collected and measured for radioactivity. […] The resulting homogenate was weighed and centrifuged at 5400 g for 30 min at 4°C, resulting in a pellet, i.e. capillaries, and supernatant, i.e. parenchyma and fat tissue, which were weighed and measured in the gamma counter. […] Compartmental distribution was calculated as follows: Fractioncapillaries or parenchyma (%)=[…] or parenchyma/[…]×100 (4)

[3] = system: blood-brain barrier (BBB); experiment: Brain-to-blood transport (efflux) after intracerebroventricular injection; settings: ICR-CD-1 mice
Procedure: Female, ICR-CD-1 mice (Harlan Laboratories, Venray, The Netherlands), aged 7 to 10 weeks and weighing 28–36 g, were used during the in vivo BBB transport experiments. All animal experiments were performed in accordance with the Ethical Committee principles of laboratory animal welfare. The protocol was approved by the Ethical Committee of the Faculty of Veterinary Science of Ghent University (Permit Numbers: 2009–052 and 2014–128). Prior to experiments, mice were anesthetized by intraperitoneal injection of a 40% urethane solution (3 g/kg) (Sigma-Aldrich, Diegem, Belgium).
For evaluation of the efflux of the peptides out of the brain, 1 μl of a radioiodinated peptide solution (25000 cpm/μl) was injected in the lateral ventricle of anesthetized ICR-CD-1 mice at a speed of 360 μl/h for 10 s using a syringe pump (KDS100, KR analytical, Cheshire, UK). […] The brain half-time disappearance (t1/2,brain) was calculated from the linear regression of the natural logarithm of the residual radioactivity in brain versus time as follows: t1/2,brain=ln(2)/kout (5) with kout defined as the efflux rate constant calculated as the absolute value of the slope of the linear regression, applying first order kinetics. An extensive description of the protocol can be found elsewhere.

[4] = In vitro metabolic stability in mouse serum; format: in vitro ADME
Procedure: (§1) Prior to use, the protein content of each homogenate was determined using the Pierce Modified Lowry Protein Assay method (Thermo Scientific) to generate a stock solution with a protein concentration of 0.6 mg/ml by dilution with Krebs-Henseleit buffer (pH 7.4, Sigma-Aldrich). […] After sampling, enzymatic activity was terminated by additional heat inactivation at 95°C for 5 min, followed by cooling the samples in an ice bath for 30 min. […] Therefore, a solid phase extraction (SPE) protocol using an Oasis® WCX μelution plate (Waters, Zellik, Belgium) was used prior to HPLC-UV analysis. In the Supporting Information, the protocol of the SPE extraction procedure is described (S1 Text). Blank control solutions were prepared as described above, but without adding the peptide. To confirm chemical stability and mass balance, control reference solutions without tissue homogenate or with a prior heat inactivation were analyzed as well. The HPLC-UV system consisted of a Waters Alliance 2695 separation module and a Waters 2996 photodiode array (PDA) detector (detection from 190-400 nm, quantification at 215 nm), fitted with Empower 2 software for data handling (Waters). […] Appropriate gradients for separation of the peptides and their metabolites were created by mixtures of water (0.1% trifluoroacetic acid m/V) and acetonitrile (0.1% trifluoroacetic acid m/V).

[5] = In vitro metabolic stability in mouse brain homogenate; format: in vitro ADME; settings: mouse brain homogenate 0.6 mg/ml protein (500 μl, 300 μg protein) + Krebs-Henseleit buffer pH 7.4, 0.1 mg/ml peptide, 37°C, 750 rpm, 0-120 min, HPLC-UV 215 nm
Procedure: as §1

[6] = In vitro metabolic stability in mouse kidney homogenate; format: in vitro ADME; settings: mouse kidney homogenate 0.6 mg/ml protein (500 μl, 300 μg protein) + Krebs-Henseleit buffer pH 7.4, 0.1 mg/ml peptide, 37°C, 750 rpm, 0-120 min, HPLC-UV 215 nm
Procedure: as §1

[7] = In vitro metabolic stability in mouse liver homogenate; format: in vitro ADME; settings: mouse liver homogenate 0.6 mg/ml protein (500 μl, 300 μg protein) + Krebs-Henseleit buffer pH 7.4, 0.1 mg/ml peptide, 37°C, 750 rpm, 0-120 min, HPLC-UV 215 nm
Procedure: as §1

[8] = system: blood-brain barrier (BBB); experiment: Classification of peptides according to their BBB influx; settings: classification method of ref [61] applied to the measured influx
Excerpt: This peptide is derived from the murine vascular endothelial (VE)-cadherin, located in the adherens junctions between the vascular endothelial cells, and constitutes the 13 cytosolic amino acids closest to the membrane and five amino acids from the C-terminus of the transmembrane region (615–632).

cellular uptake = system: cellular uptake; parameters: method as in Stalmans et al.[1]; settings: cell-penetrating (CP-) response, quantitative expression of cellular influx; ref Stalmans et al.[1]; cited from earlier work

Substance: AGYLLGKINLKPLAALAKKIL-NH2 [TP10-2, transportan analog differing one amino acid from TP10]
- Kin (unidirectional influx rate), linear Gjedde-Patlak model ([1]; 125I-radioiodinated peptide, IV jugular vein 200 μl (30000 cpm/μl), anesthetized female ICR-CD-1 mice, 1-15 min, brain/serum radioactivity (gamma counter) vs exposure time, pVEC, SynB3, TP10: two experiments fitted together): 0.36 µL/g/min and 0.36 ± 0.06 µL/g/min
- Vi (initial brain distribution volume), linear Gjedde-Patlak model ([1]; 125I-radioiodinated, IV, ICR-CD-1 mice, MTR 1-15 min): 10.07 ± 1.00 µL/g
- Parenchymal fraction [2]: 84%
- kout (efflux transfer constant) ([3]; 1 μl radioiodinated peptide (25000 cpm/μl) in lateral ventricle, 1-15 min, slope of ln(brain activity) vs time): 0.06 ± 0.01 min⁻¹
- t1/2,brain (half-time disappearance) ([3]; ln(2)/kout after intracerebroventricular injection): 0.183 h
- Half-life, serum ([4]; mouse serum 500 μl + 400 μl Krebs-Henseleit buffer pH 7.4 + 100 μl 1 mg/ml peptide, 37°C, 750 rpm, sampling 0-120 min plus early points, HPLC-UV 215 nm, t1/2 = -ln(2)/slope): 3.823 h
- Serum half-life ([4]; mouse serum in Krebs-Henseleit buffer pH 7.4, 37°C, SPE then HPLC-UV): 4 h
- Half-life, brain [5]: 1.705 h
- Half-life, kidney [6]: 0.188 h
- Half-life, liver [7]: 1.97 h
- BBB influx class [8]: class 2
- CP-response (cellular uptake): 0.749
